Experimental data published in ChEMBL document CHEMBL1201862, “PubChem BioAssay data set” (2004).
Activity calls are given as the source filed them.

Molecular target: Cytochrome P450 2C19 (Homo sapiens, UniProt P33261)
Test: Cytochrome panel assay with activity outcomes. Panel member name: p450-cyp2c19 Compounds with AC50 equal or less than 10 uM are considered active
Type: functional
Details: read-out: AC50

Sequence of Cytochrome P450 2C19 (P33261 whole entry): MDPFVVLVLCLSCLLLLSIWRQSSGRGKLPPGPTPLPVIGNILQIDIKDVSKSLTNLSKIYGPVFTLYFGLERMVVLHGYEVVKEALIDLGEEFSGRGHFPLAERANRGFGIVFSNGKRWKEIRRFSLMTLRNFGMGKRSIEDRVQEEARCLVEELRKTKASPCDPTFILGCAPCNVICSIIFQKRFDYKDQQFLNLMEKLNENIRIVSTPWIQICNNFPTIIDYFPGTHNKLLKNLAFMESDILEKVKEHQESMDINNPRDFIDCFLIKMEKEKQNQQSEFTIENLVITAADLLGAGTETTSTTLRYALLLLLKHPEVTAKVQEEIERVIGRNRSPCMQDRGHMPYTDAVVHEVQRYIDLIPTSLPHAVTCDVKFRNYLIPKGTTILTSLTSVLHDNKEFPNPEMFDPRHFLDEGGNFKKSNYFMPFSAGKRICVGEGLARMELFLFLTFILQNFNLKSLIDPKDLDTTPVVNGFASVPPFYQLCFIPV

SMILES | AC50
CCC(Nc1cc(OC)ccc1OC)=C1C(=O)NC(=O)NC1=O | 31.6 µM (inconclusive)
O=C1CC(=O)N(CCc2ccc(F)cc2)C(=O)N1 | 31.6 µM (inconclusive)
Cc1ccc2c(c1)N(CCC(=O)NCCN1CCOCC1)C(=O)CO2 | 39.8 µM (inconclusive)
O=c1[nH]c2ccccc2/c(=N\S(=O)(=O)c2ccc(Cl)cc2)n1-c1ccccc1 | 25.1 µM (inconclusive)
O=c1[nH]c(=S)[nH]c(-c2ccccc2)c1Cc1c(O)ccc2ccccc12 [CAMBINOL] | 0.0794 µM (inconclusive)

Test system: H4
Test: Luminescence Cell-Based Dose Response HTS to Identify Activators of 5'UTR Stem-Loop Driven Prion Protein mRNA Translation in H4 Neuroglioblastoma Cells. [Related pubchem assays: 1829 (Project Summary), 1814 (Primary HTS)]
Type: functional
Details: Homo sapiens

SMILES | EC50
COc1ccccc1C(=O)COC(=O)c1ccc(N(C)C)cc1 | 1.79 µM (active)

Molecular target: Cytochrome P450 2C9 (Homo sapiens, UniProt P11712)
Details: not given

Sequence of Cytochrome P450 2C9 (P11712 whole entry): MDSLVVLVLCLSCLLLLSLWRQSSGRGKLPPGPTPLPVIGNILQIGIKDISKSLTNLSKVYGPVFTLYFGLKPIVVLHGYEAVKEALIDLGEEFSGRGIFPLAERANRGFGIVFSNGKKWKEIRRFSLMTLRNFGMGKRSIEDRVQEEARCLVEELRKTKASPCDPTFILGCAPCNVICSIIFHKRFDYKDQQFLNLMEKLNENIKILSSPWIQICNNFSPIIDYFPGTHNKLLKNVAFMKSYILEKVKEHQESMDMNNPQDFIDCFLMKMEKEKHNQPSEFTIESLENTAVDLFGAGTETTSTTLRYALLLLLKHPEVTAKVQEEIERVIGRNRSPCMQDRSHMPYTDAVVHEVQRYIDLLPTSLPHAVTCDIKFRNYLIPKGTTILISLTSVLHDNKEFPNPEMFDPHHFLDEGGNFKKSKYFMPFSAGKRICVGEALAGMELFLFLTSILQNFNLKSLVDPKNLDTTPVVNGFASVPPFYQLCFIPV

SMILES | AC50
CC(=O)N1CCC2(CCCN(C(c3ccccc3)c3ccccc3)C2)CC1 | 31.6 µM (inconclusive)
Oc1ccc(Br)cc1CNn1cnnc1 | 17.8 µM (inconclusive)
O=C1CC(=O)N(CCc2ccc(F)cc2)C(=O)N1 | 25.1 µM (inconclusive)
CN(C)c1ncc2ncc(=O)n(Cc3cccs3)c2n1 | 39.8 µM (inconclusive)
Cc1ccc2c(c1)N(CCC(=O)NCCN1CCOCC1)C(=O)CO2 | 39.8 µM (inconclusive)
O=c1[nH]c2ccccc2/c(=N\S(=O)(=O)c2ccc(Cl)cc2)n1-c1ccccc1 | 0.891 µM (inconclusive)
O=c1[nH]c(=S)[nH]c(-c2ccccc2)c1Cc1c(O)ccc2ccccc12 [CAMBINOL] | 7.94 µM (inconclusive)

Test system: not listed separately
Test: Luminescence Cell-Based Dose Retest to Confirm Inhibitors of Cancer Stem Cells. [Related pubchem assays (depositor defined):AID2717, AID2721]
Type: functional
Details: Homo sapiens

SMILES | AC50
COc1ccc(-c2sc3ccccc3c2C#CC2(O)CCCCC2)cc1 | 3.73 µM (active)
CCn1c2ccccc2c2cc(NS(=O)(=O)c3ccc(C)cc3)ccc21 | 2.87 µM (active)
CCN(CC)c1ccc(S(=O)(=O)Nc2cc(Cl)ccc2Cl)cc1NC(=S)NC(=O)C1CCCC1 | 1.65 µM (active)
O=S(=O)(Nc1cc(O)nc(SCc2ccc(Cl)cc2)n1)c1ccccc1 | 4.07 µM (active)
CCC(=O)NNc1ccc(Br)cc1 | 1.82 µM (active)
CCOC(=O)c1c(-c2ccccc2)csc1NC(=O)c1nn(CC)cc1Br | 0.506 µM (active)
CN(CC(=O)Nc1ccccc1Cl)C(=O)c1cccc(-n2cccc2)c1 | > 195 µM (inactive)
C/C(=N\NC(=S)Nc1ccc(F)cc1)c1ccc2c(c1)OCCO2 | 1.02 µM (active)
C/C(N=Nc1ccccc1O)=N\Nc1nc2ccccc2s1 | 3.71 µM (active)

Test system: not listed separately
Test: Trypanosoma cruzi growth suppression in host cells – NIH3T3 host cells, beta-gal luminescence, confirmation (AID 2044);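 also: intracellular parasites grown in NIH/3T3 mouse fibroblasts as host cells; luminescent beta-galactosidase reporter signal from transgenic T. cruzi replicating inside host cells; inhibitors lower the luminescence signal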
Type: functional, cell-based
Details: not given

SMILES | EC50
Cc1ccc(/C(C#N)=C\c2ccc(N3CCOCC3)o2)cc1 | 4.37 µM (active)
CCOC(=O)c1c(-c2ccccc2)csc1NC(=O)c1nn(CC)cc1Br | 2.06 µM (active)

Test system: Streptococcus
Test: GAS UMAA2166 growth inhibition – luminescence, BacTiterGlo, counter-screen for streptokinase expression inhibitor project, dose response (AID 1915);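 also: potency for reduction of bacterial viability or growth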
Type: functional, organism-based
Details: not given

SMILES | EC50
CCc1ccc(/C=C/c2c([N+](=O)[O-])c(=O)n(C)c(=O)n2C)cc1 | 18 µM (active)
COc1ccc(-c2sc3ccccc3c2C#CC2(O)CCCCC2)cc1 | 8.22 µM (active)
O=C(c1cc(-c2cccs2)nc2ccccc12)N1CCN(c2ccccc2O)CC1 | 54.8 µM (active)
CN1CCN(NC(=O)Nc2cc(Cl)cc(Cl)c2)CC1 | > 150 µM (not active)

Molecular target: T1, Rac GTPase-activating protein 1 (Homo sapiens, UniProt Q9H0H5)
T1 sequence (Q9H0H5 whole entry): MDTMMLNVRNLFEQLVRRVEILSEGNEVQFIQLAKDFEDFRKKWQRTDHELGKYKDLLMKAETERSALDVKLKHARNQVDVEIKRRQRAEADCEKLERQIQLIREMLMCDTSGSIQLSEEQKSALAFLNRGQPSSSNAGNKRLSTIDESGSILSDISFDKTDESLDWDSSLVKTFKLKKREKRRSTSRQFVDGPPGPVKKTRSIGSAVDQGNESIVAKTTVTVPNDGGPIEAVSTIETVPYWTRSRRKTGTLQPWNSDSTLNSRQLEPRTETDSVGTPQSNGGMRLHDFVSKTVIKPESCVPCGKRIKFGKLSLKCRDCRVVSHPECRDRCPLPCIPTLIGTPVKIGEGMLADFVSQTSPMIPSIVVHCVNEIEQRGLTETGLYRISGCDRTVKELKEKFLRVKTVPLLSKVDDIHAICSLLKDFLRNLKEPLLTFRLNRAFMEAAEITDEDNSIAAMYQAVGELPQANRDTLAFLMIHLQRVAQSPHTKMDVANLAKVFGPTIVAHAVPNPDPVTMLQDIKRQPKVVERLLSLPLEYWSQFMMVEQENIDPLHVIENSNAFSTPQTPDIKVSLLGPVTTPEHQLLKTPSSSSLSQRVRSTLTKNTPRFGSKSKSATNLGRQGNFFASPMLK
Test: blockers of MgcRacGAP-driven Rac1 GTP hydrolysis – biochemical, ADP Hunter fluorescence, primary and confirmatory, confirmation (AID 624330)
Type: functional
Details: not given

SMILES | IC50
Cc1ccc(/C(C#N)=C\c2ccc(N3CCOCC3)o2)cc1 | 65.6 µM (active)

Test system: not listed separately
Test: NIH3T3 cell viability loss – ATP luminescence, mouse fibroblasts, counter-screen, dose response (AID 2010);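 also: cells exposed to compound for about 90 hours before reading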
Type: functional, cell-based
Details: not given

SMILES | EC50
Cc1ccc(/C(C#N)=C\c2ccc(N3CCOCC3)o2)cc1 | > 60 µM (inconclusive)
CCOC(=O)c1c(-c2ccccc2)csc1NC(=O)c1nn(CC)cc1Br | > 60 µM (not active)

Molecular target: Cytochrome P450 2D6 (Homo sapiens, UniProt P10635);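 also: CYP2D6 member of a cytochrome P450 panel assay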
Details: not given

Sequence of Cytochrome P450 2D6 (P10635 whole entry): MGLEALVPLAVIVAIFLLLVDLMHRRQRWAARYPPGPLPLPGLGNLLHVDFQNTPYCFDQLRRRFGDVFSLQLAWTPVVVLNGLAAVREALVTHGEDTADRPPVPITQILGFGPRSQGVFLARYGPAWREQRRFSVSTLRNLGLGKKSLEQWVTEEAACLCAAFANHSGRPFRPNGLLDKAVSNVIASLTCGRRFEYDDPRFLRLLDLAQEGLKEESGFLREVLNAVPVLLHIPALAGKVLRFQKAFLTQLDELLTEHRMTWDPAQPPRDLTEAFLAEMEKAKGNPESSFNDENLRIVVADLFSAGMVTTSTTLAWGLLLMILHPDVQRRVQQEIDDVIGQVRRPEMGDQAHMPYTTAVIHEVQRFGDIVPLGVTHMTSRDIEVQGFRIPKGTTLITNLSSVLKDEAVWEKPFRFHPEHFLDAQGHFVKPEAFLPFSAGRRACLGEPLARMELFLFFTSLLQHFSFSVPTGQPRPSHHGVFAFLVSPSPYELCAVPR

SMILES | AC50
CN(C)c1ncc2ncc(=O)n(Cc3cccs3)c2n1 | 12.6 µM (inconclusive)

Molecular target: T2, Streptokinase A (Streptococcus pyogenes serotype M1, UniProt P10520)
T2 sequence (P10520 whole entry): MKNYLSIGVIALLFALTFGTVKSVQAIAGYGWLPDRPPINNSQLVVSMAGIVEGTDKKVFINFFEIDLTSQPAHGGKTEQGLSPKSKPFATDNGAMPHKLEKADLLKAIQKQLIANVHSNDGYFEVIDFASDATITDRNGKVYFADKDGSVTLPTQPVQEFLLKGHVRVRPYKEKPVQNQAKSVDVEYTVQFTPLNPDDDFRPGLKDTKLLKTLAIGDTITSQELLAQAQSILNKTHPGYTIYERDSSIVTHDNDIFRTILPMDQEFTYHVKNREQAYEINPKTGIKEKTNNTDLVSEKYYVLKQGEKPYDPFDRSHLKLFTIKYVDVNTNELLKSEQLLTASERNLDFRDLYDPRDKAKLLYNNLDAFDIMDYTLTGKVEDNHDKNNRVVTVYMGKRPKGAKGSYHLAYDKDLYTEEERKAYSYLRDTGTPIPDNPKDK
Test: viability-normalized secreted streptokinase activity reduction – plasminogen activation absorbance, OD405, dose response (AID 1914);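 also: secreted streptokinase activity via plasminogen activation per viability signal from cell pellet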
Type: functional, Streptococcus pyogenes M1 GAS
Details: not given

SMILES | EC50
CCc1ccc(/C=C/c2c([N+](=O)[O-])c(=O)n(C)c(=O)n2C)cc1 | > 150 µM (not active)
COc1ccc(-c2sc3ccccc3c2C#CC2(O)CCCCC2)cc1 | 6.81 µM (active)
O=C(c1cc(-c2cccs2)nc2ccccc12)N1CCN(c2ccccc2O)CC1 | 144 µM (active)
CN1CCN(NC(=O)Nc2cc(Cl)cc(Cl)c2)CC1 | 21.7 µM (active)

Test system: Streptococcus sp. 'group A'
Test: Streptococcus pyogenes SK(-)GAS viability under kanamycin – luminescence, BacTiterGlo, confirmation, counter-screen for streptokinase expression inhibitor project, dose response (AID 1900)
Type: functional, organism-based
Details: not given

SMILES | EC50
CCc1ccc(/C=C/c2c([N+](=O)[O-])c(=O)n(C)c(=O)n2C)cc1 | 4.55 µM (active)
COc1ccc(-c2sc3ccccc3c2C#CC2(O)CCCCC2)cc1 | 3.52 µM (active)
O=C(c1cc(-c2cccs2)nc2ccccc12)N1CCN(c2ccccc2O)CC1 | 21.8 µM (active)
CN1CCN(NC(=O)Nc2cc(Cl)cc(Cl)c2)CC1 | 6.77 µM (active)

Molecular target: T3, Cytochrome P450 1A2 (Homo sapiens, UniProt P05177);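 also: PubChem cytochrome P450 panel assay, CYP1A2 panel member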
T3 sequence (P05177 whole entry): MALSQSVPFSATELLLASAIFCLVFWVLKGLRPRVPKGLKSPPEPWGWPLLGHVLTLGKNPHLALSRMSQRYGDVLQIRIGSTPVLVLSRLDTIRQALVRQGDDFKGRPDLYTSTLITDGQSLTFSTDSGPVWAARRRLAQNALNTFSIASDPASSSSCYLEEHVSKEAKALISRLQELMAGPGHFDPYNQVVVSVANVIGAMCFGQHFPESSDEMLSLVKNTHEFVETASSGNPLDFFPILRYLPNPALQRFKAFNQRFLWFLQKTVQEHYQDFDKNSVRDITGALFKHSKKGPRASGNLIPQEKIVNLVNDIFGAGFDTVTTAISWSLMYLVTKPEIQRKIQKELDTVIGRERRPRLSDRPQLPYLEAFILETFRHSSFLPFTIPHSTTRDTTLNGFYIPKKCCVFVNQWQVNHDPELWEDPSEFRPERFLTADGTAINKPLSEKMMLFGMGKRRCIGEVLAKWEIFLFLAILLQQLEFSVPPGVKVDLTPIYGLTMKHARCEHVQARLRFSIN
Details: not given

SMILES | AC50
Oc1ccc(Br)cc1CNn1cnnc1 | 14.1 µM (inconclusive)
O=c1[nH]c2ccccc2/c(=N\S(=O)(=O)c2ccc(Cl)cc2)n1-c1ccccc1 | 8.91 µM (inconclusive)
O=c1[nH]c(=S)[nH]c(-c2ccccc2)c1Cc1c(O)ccc2ccccc12 [CAMBINOL] | 1 µM (inconclusive)

Molecular target: Cytochrome P450 3A4 (Homo sapiens, UniProt P08684);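 also: CYP3A4 tested as one member of a cytochrome P450 panel screen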
Details: not given

Sequence of Cytochrome P450 3A4 (P08684 whole entry): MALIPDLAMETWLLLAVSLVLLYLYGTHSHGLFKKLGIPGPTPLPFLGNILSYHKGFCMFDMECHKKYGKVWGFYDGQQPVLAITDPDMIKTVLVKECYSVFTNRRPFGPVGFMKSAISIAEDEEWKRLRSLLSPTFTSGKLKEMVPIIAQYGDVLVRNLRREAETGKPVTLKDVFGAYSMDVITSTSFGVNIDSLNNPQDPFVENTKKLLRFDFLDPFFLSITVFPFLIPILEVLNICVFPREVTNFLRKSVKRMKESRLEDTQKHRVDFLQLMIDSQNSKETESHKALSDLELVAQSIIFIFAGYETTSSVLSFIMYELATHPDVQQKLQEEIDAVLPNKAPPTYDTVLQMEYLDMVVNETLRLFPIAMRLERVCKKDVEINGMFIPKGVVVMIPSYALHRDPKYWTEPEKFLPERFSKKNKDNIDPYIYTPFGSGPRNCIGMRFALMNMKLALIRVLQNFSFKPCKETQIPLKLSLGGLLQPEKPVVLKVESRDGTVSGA

SMILES | AC50
CC(=O)N1CCC2(CCCN(C(c3ccccc3)c3ccccc3)C2)CC1 | 12.6 µM (inconclusive)
Oc1ccc(Br)cc1CNn1cnnc1 | 35.5 µM (inconclusive)
CCC(Nc1cc(OC)ccc1OC)=C1C(=O)NC(=O)NC1=O | 39.8 µM (inconclusive)
O=C1CC(=O)N(CCc2ccc(F)cc2)C(=O)N1 | 31.6 µM (inconclusive)
CN(C)c1ncc2ncc(=O)n(Cc3cccs3)c2n1 | 15.8 µM (inconclusive)
Cc1ccc2c(c1)N(CCC(=O)NCCN1CCOCC1)C(=O)CO2 | 25.1 µM (inconclusive)
O=c1[nH]c2ccccc2/c(=N\S(=O)(=O)c2ccc(Cl)cc2)n1-c1ccccc1 | 2.82 µM (inconclusive)
O=c1[nH]c(=S)[nH]c(-c2ccccc2)c1Cc1c(O)ccc2ccccc12 [CAMBINOL] | 0.631 µM (inconclusive)
